system: TNF-α production in human PBMC (peripheral blood mononuclear cells); test: Inhibition of TNF-alpha production in human PBMC (MSD technology); assay type: cell-based; conditions: inhibition of LPS-stimulated TNF-α production in human PBMC; measured and/or mean; read-out: PBMC pIC50 (MSD assay) (converted)
Protocol: A 96-well plate (96 MicroWell™ Plates Nunclon™Δ-High Flange Design, Fisher Scientific UK, Bishop Meadow Road, Loughborough LE 11 5 RG, Leicestershire, UK) is prepared by initially adding to column 1 ca. 10 mM of test compound dissolved in DMSO. […] The compound is further diluted with DMSO into columns 2 to 9 by 8 successive 3fold dilutions using the Biomek® FX Laboratory Automation Workstation (Beckman Coulter, Inc., 4300 N. Harbor Boulevard, P.O. Box 3100, Fullerton, Calif. 92834-3100 USA). Column 10 is used as a DMSO negative control (High Signal, 0% response), whilst column 11, which contains 10 mM of the PDE4 inhibitor roflumilast, is used as a positive control (Low Signal, 100% response). About 1 μl (about 1 ul) of compound is transferred to the compound plate using the Biomek® FX.
PBMC cells (peripheral blood mononuclear cells) are prepared from heparinised human blood (using 1% v/v Heparin Sodium 10001 U/ml Endotoxin Free, Leo Laboratories Ltd., Cashel Road, Dublin 12. Ireland, Cat No: PL0043/0149) from normal volunteers using the Accuspin™ System-Histopaque®-1077 essentially (Sigma-Aldrich Company Ltd., The Old Brickyard New Rd, Gillingham Dorset SP8 4XT). About 20 ml of blood is overlaid onto 15 ml Histopaque® in Accuspin™ tubes. The tube is then centrifuged at about 800 g for ca. 20 minutes. The cells are collected from the interface, washed by centrifugation (ca. 1300 g, ca. 10 minutes) and resuspended in RPMI1640 medium (Low endotoxin RPMI1640 medium, Cat No: 31870-025, Invitrogen Corporation Invitrogen Ltd, 3 Fountain Drive, Inchinnan Business Park, Paisley PA4 9RF, UK) containing 10% foetal calf serum, 1% L-glutamine (Invitrogen Corporation, Cat No: 25030024) and 1% penicillin/streptomycin (Invitrogen Corporation, Cat No: 15140-122). Viable cells are counted by trypan blue staining and diluted to 1×10^6 viable cells/ml. About 50 μl (about 50 ul) of diluted cells and about 75 μl (about 75 ul) of LPS (ca. 1 ng/ml final; Sigma Cat No: L-6386) are added to the compound plate, which is then incubated at 37° C., 5% CO2, for 20 hours.
The supernatant is removed and the concentrations of TNF-α are determined by electrochemiluminescence assay using the Meso Scale Discovery (MSD) technology (Meso Scale Discovery, 9238 Gaither Road, Gaithersburg, Md. 20877, USA). See the “TNF-α (TNF-alpha) MSD Assay” described below for typical details.
Using the Biomek FX, 25 μl (25 ul) of MSD Human Serum Cytokine Assay Diluent (Meso Scale Discovery, 9238 Gaither Road, Gaithersburg, Md. 20877) is added to a 96-well High-Bind MSD plate pre-coated with anti-hTNF alpha capture antibody (MA6000) and then incubated for 24 hours at 4° C. to prevent non-specific binding. […]
For the PBMC assay, about 20 μl (ul) of diluted sulfo-TAG antibody (ca. 1 μg/ml final) is added to each well, and the plates/wells are shaken at room temperature for 2 hours. Finally, about 90 μl (ul) of MSD Read Buffer P (diluted to 2.5 times with distilled water) is added and the plates are read on a MSD Sector 6000.
Data analysis is performed with ActivityBase/XC50 module (ID Business Solutions Ltd., 2 Occam Court, Surrey Research Park, Guildford, Surrey, GU2 7QB UK). Data are normalized and expressed as % inhibition using the formula 100*((U-C1)/(C2-C1)) where U is the unknown value, C1 is the average of the high signal (0%) control wells (column 10), and C2 is the average of the low signal (100%) control wells (column 11). […]

SMILES	IC50
CCc1nc2c(cnn2CC)c(NC2CCOCC2)c1CNC(=O)c1ccc(-c2ccc(C(=O)NCc3c(CC)nc4c(cnn4CC)c3NC3CCOCC3)cc2)cc1 [Example 23, N,N′-bis{[1,6-diethyl-4-(tetrahydro-2H-pyran-4-ylamino)-1H-pyrazolo[3,4-b]pyridin-5-yl]methyl}-4,4′-biphenyldicarboxamide]	~0.126 nM
CCn1ncc2c(NC3CCOCC3)c(CNC(=O)c3cccc(-c4cccc(C(=O)NCc5c(C)nc6c(cnn6CC)c5NC5CCOCC5)c4)c3)c(C)nc21 [Example 29, N,N′-bis{[1-ethyl-6-methyl-4-(tetrahydro-2H-pyran-4-ylamino)-1H-pyrazolo[3,4-b]pyridin-5-yl]methyl}-3,3′-biphenyldicarboxamide]	~0.794 nM
CCc1nc2c(cnn2CC)c(NC2CCOCC2)c1CNC(=O)c1ccc(C(=O)NCc2c(CC)nc3c(cnn3CC)c2NC2CCOCC2)o1 [Example 35, N,N′-bis{[1,6-diethyl-4-(tetrahydro-2H-pyran-4-ylamino)-1H-pyrazolo[3,4-b]pyridin-5-yl]methyl}-2,5furandicarboxamide]	~0.1 nM
